pIC50: −log10 of the molar value. Converted amounts (≈) assume the structure as drawn.

Series [1] deals with T1, NADPH--cytochrome P450 reductase (Mus musculus, UniProt P37040).
T1 sequence (P37040 whole entry): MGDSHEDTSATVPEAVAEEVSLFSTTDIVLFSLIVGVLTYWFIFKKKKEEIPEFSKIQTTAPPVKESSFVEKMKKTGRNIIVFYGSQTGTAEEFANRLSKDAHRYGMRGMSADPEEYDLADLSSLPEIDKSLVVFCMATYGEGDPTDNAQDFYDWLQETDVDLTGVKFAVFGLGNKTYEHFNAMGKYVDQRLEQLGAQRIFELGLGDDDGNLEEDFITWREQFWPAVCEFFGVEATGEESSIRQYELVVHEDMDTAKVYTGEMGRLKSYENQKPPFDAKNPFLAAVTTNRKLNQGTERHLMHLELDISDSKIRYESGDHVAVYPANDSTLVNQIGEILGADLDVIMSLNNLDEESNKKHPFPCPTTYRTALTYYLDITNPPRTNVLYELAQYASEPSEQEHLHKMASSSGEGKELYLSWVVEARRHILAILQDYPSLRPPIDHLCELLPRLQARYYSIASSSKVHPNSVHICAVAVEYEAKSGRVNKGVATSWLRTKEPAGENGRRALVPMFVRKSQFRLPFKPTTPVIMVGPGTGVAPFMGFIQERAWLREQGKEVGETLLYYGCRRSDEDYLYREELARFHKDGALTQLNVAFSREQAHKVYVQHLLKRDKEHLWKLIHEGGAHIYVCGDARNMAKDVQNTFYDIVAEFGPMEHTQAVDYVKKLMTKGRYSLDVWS
Description: Metabolic stability in CD-1 mouse liver S9 fraction assessed as NADPH CYP450 reductase-mediated compound metabolism by measuring compound remaining in presence of NADPH at 20 uM after 30 mins by HPLC method. The settings on record: read-out: Stability. Format: ADME.

A short description of series [2]: Thermodynamic solubility of the compound in phosphate buffer at pH 7.4 at 1 mg sonicated for 10 mins measured after 20 hrs by reverse phase HPLC analysis. The class given is physicochemical. The note with it: read-out: Therm_solubility.
The target in series [3] is T2, NADPH--cytochrome P450 reductase (Rattus norvegicus, UniProt P00388).
T2 sequence (P00388 whole entry): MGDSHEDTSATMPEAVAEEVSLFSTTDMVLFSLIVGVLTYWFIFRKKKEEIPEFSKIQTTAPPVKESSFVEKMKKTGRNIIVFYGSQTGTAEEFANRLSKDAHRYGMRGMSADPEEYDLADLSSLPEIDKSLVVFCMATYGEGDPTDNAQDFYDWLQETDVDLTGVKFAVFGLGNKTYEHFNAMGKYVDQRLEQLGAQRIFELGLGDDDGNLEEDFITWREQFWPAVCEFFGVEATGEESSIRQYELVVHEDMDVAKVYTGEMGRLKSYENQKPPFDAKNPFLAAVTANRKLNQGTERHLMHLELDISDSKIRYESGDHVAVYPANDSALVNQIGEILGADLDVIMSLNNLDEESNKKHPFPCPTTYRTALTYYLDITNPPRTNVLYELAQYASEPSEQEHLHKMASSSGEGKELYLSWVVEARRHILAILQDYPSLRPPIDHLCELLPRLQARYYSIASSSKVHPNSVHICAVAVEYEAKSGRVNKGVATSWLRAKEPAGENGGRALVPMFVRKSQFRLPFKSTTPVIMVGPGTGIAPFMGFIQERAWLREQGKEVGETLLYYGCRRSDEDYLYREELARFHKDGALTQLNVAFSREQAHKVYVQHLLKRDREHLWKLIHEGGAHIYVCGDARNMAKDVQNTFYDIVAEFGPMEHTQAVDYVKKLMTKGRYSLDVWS
The experiment in a line: Metabolic stability in rat liver microsomes assessed as NADPH CYP450 reductase-mediated compound metabolism by measuring compound remaining in presence of NADPH at 20 uM after 30 mins by HPLC. The class given is ADME. The settings on record: read-out: Stability. (In general: Microsomes from liver hold many membrane-bound enzymes, among them those of drug oxidation.)

Series [4] deals with UGT. The experiment in a line: Metabolic stability in CD-1 mouse liver S9 fraction assessed as UGT-mediated glucuronidation of compound by measuring compound remaining at 5 uM preincubated for 3 mins followed by UDPGA addition measured after 60 mins by HPLC/MS analysis. The class given is ADME. The note with it: read-out: Stability.
The target in series [5] is T3, Cytosolic phospholipase A2 (Homo sapiens, UniProt P47712).
T3 sequence (P47712 whole entry): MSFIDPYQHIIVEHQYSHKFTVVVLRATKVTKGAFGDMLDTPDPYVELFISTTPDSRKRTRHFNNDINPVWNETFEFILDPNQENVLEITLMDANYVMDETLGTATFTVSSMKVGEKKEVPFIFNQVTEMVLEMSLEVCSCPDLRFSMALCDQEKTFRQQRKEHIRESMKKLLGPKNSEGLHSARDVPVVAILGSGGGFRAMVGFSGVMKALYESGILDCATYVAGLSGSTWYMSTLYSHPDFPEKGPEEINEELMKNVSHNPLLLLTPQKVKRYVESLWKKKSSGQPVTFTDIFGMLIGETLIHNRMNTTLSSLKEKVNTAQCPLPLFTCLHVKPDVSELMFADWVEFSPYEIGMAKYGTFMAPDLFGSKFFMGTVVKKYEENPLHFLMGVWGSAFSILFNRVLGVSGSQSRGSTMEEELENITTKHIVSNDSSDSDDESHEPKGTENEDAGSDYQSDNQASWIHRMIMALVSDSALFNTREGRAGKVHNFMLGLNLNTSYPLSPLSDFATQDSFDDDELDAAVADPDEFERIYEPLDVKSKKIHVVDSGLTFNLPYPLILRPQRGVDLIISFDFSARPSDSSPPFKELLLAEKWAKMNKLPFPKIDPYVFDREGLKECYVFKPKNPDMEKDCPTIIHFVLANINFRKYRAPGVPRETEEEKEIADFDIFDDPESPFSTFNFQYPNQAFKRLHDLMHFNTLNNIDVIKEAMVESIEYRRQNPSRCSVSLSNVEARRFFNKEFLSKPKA
Description: Inhibition of human platelet cytosolic phospholipase alpha-2 using 1-stearoyl-2-arachidonoyl-sn-glycero-3-phosphocholine/1,2-dioleoyl-sn-glycerol as substrate after 60 mins by UV-HPLC method.

The subject of series [6] is UGT. The experiment in a line: Metabolic stability in Wistar rat liver S9 fraction assessed as UGT-mediated glucuronidation of compound by measuring compound remaining at 5 uM preincubated for 3 mins followed by UDPGA addition measured after 60 mins by HPLC/MS analysis. The note with it: read-out: Stability. Format: ADME.
The target in series [7] is T2, NADPH--cytochrome P450 reductase. The experiment in a line: Metabolic stability in rat liver S9 fraction assessed as NADPH CYP450 reductase-mediated compound metabolism by measuring compound remaining in presence of NADPH at 20 uM after 30 mins by HPLC method. The class given is ADME. The note with it: read-out: Stability.

As a reminder, the pIC50 is the IC50 on a negative log10 scale, so that one unit is a factor of ten. Lower therefore signals a large IC50. Take `CCCCCCCCc1ccc(OCC(=O)Cn2cc(C(=O)CCCCCO)c3cc(C(=O)O)ccc32)cc1`: the remaining at 0.5 h, 20 µM in series [1] is 78%; in series [3] it was 86%; in series [7], 72%. Further, the solubility thermodynamic at 20 h in series [2] is 422 µg/mL (≈ 788 µM). Also, the remaining at 1 h, 5 µM amounted to 27% in series [4] and 43% in series [6]. Also, the pIC50 in series [5] was 7.51.

For `COc1ccc2c(c1)c(CC(=O)O)c(C)n2C(=O)c1ccc(Cl)cc1` [INDOMETHACIN], the solubility thermodynamic at 20 h in series [2] amounted to 246 µg/mL (≈ 688 µM).

As for `CCCCCCCCc1ccc(OCC(=O)Cn2cc(C(=O)CCCCC)c3cc(C(=O)O)ccc32)cc1`, the remaining at 0.5 h, 20 µM amounted to 86% in series [1], 93% in series [3] and 100% in series [7]. Also, the values for the remaining at 1 h, 5 µM in series [4] and in series [6] were 78% and 83%, respectively.
